Experimental data published in article PMC11014985, “TCTP regulates genotoxic stress and tumorigenicity via intercellular vesicular signaling” (EMBO Reports, 2024).

Target: T1, recombinant human TCTP (Homo sapiens, UniProt P13693)
T1 construct: gene TPT1; recombinant; RED-NHS fluorescently labelled for MST
T1 sequence (P13693 1-172): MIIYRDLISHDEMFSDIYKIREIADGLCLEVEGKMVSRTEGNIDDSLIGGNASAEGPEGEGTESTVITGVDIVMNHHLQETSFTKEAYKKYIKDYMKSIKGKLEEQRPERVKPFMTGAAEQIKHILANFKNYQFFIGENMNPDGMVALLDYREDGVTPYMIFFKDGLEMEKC
Experiment: microscale thermophoresis
Format: binding

| SMILES | Kd [µM] |
| --- | --- |
| CN[C@H]1CC[C@@H](c2ccc(Cl)c(Cl)c2)c2ccccc21 [sertraline] | 15.4 ± 1.4 |
| CSc1ccc2c(c1)N(CCC1CCCCN1C)c1ccccc1S2 (centres unmarked) [thioridazine] | 5.39 ± 2.1 |
